These results are taken from patent US20130045943A1, “A3AR AGONISTS FOR THE TREATMENT OF UVEITIS” (THE GOVERNMENT OF THE UNITED STATES OF AMERICA AS …, priority 2010, published 2013).

“Also recorded” adds a separate entry of the source.

The subject of data set [1] is antigen-specific (IRBP) responses of T cells. The data set is described as follows: In vitro antigen-driven proliferation assay (3[H]-thymidine incorporation) of drain lymph node cells from treated mice. The data set is classed as cell-based, C57BL/6j mice. To be noted: lymph node cells from treated animals, cultured 48 hours with IRBP 0.2-20 μg/ml. As to the method: To explore the immunological effects of IB-MECA on the antigen-specific responses of T cells, an in vitro antigen-driven proliferation assay was performed. Drain lymph nodes (inguinal and iliac) were collected from the IRBP immunized mice, both from the vehicle and from the IB-MECA treated groups. The cells were cultured for 48 hours in the presence of graded doses of IRBP (0.2-20 μg/ml) and proliferation was evaluated by an ^3[H]-thymidine incorporation assay.
A general note: Uptake of a labelled nucleoside into DNA is a usual measure of proliferation.

Data set [2] deals with experimental acute uveitis (EAU) induced with IRBP in C57BL/6j mice. The data set is described as follows: Experimental autoimmune uveitis (EAU) in mice, disease intensity scored by funduscopy. The conditions noted are these: for inhibition of fundoscopy score: oral IB-MECA 10 μg/kg twice daily from day 7. The class given is in vivo.
For data set [3] the test system is unchanged. The data set is described as follows: EAU in mice, histopathological grading of enucleated eyes. The data set is classed as in vivo.
Data set [4] in a line: Water solubility. The class given is physicochemical.

In the case of `CNC(=O)[C@H]1OC(n2cnc3c(NCc4cccc(I)c4)ncnc32)[C@H](O)[C@@H]1O` (stereo partly drawn) [IB-MECA, 1-Deoxy-1-[6-[[(3-iodophenyl)methyl]amino]-9H-purine-9-yl]-N-methyl-D-ribofuranuronamide], the “T cell response to IRBP (proliferation)” value in data set [1] was “moderate response; also recorded: ameliorates”. The entries for the “inhibition of fundoscopy score” value in data set [2] (day 16 after immunization) and in data set [2] (day 20 after immunization) were 91% and 49.4%, respectively. Also, in data set [2] (result in words), the “development of EAU (FIG. 1)” value is on record as “inhibited”. Moreover, the “histopathological score of EAU (FIG. 2)” value in data set [3] (result in words) is reported as “decreased”. Further, the “inhibition of pathological score in comparison to the vehicle-treated group” value in data set [3] (upon study termination, oral IB-MECA 10 μg/kg twice daily from day 7) was 53%. Moreover, the water solubility entry in data set [4] is given as “not water soluble”.
